From publication PMC8110578, “Phenylethynylbenzyl-modified biguanides inhibit pancreatic cancer tumor growth” (Scientific Reports, 2021)
Like-named read-outs stand apart in the source and are kept apart here.

Key:
[1] = tested on: HPNE cells (normal immortalized pancreatic epithelial cells); experiment: Growth assay (crystal violet), HPNE cells; assay type: cell-based, human; details: 3 days treatment, crystal violet retention assay
Experimental: . The IC50 of most of the synthetic biguanides in HPNE cells was higher than for cancer cells (Supplementary Table S12).
(§1) All chemicals were purchased from Aldrich Chemicals in their highest purity and used without further purification. Deuterated dimethylsulfoxide (DMSO-d^6) and deuterated chloroform (CDCl3) were purchased from CDN Isotopes. NMR spectra were recorded on Bruker advance 400 and 100 spectrometers. Coupling constants are given in hertz (Hz) and chemical shifts are given in parts per million (ppm, δ) measured relative to the residual solvent (the multiplicity of the signals are given as s: singlet, d: doublet, t: triplet, and m: multiplet). High-resolution mass spectra (HRMS) were recorded on a TSQ Quantum Ultra (Thermo Scientific) triple quadrupole with accurate mass option instrument (Université de Montréal Mass Spectrometry Facility). MS experiences were performed using an UltrafleXtreme MALDI TOF/TOF mass spectrometer equipped with a SmartBeam II Nd:Yag/355 nm laser operating at 1 kHz and providing a laser focus down to 20 μm in diameter (Bruker Daltonics, Billerica, MA). The data acquisition for MS was performed in positive ion mode using the linear geometry with flexControl 3.4 (Bruker Daltonics, Billerica, MA). Acceleration voltage was set to + 25 kV and all other instrumental parameters (delayed extraction parameters, source voltages, detector gain, laser energy, etc.) were optimized for maximum S/N for the drug compounds. L-α-Phosphatidylcholine was purchased from Avanti Polar Lipids. Transport and depolarization studies as well as absorbance measurements were performed on a Varian Cary Eclipse fluorescence spectrophotometer. The hemolysis assays were performed on a Fluostar Optima plate reader. Single crystals of C18H18F3N5O3S were obtained from chloroform. A suitable crystal was selected and analysed on a Bruker Venture Metaljet diffractometer. Crystal violet retention assay was used for cell growth assays and IC50 were determined using Prism (GraphPad). NAD/NADH quantitation colorimetric kit (#K337-100) from Biovision was used according to manufacturer’s instructions. ECAR (extracellular acidification rate) and OCR of KP4 cells (oxygen consumption rate) were measured on a Seahorse XF-24 (Agilent).
(§2) Experimental. KP4 (Riken RCB1005) and PSN1 (ATCC: CRM-CRL-3211), were cultured in Dulbecco's modified Eagle's medium (DMEM) (Wisent, St-Bruno, QC) supplemented with 10 % of fetal bovine serum (FBS) (Wisent). HPNE hTERT (ATCC: CRL1423) were cultured in a mix of 75% DMEM without glucose (Sigma Cat#. D-5030) with additional 2 mM L-glutamine and 1.5 g/L sodium bicarbonate, 25% Medium M3 Base (Incell Corp. Cat# M300F- 500), fetal bovine serum 5% (wisent 10 ng/ml human recombinant EGF (Sigma-Aldrich), 5.5 mM D-glucose (Sigma-Aldrich), 750 ng/ml puromycin (Sigma-Aldrich). For dose-response assays, cells were seeded in 96 well plates (company). After 24 h, treatments were applied and cells were grown for 3 more days. Crystal violet retention assay used for cell growth assays were described previously^2. The data is expressed as relative absorbance of crystal violet extracted from the cells and diluted in 10 % acetic acid. IC50 were determined using Prism (GraphPad). Tumor spheres were grew according to Ferbeyre et al^3.

red blood cells [2] = experiment: Hemolytic activity of PEB-biguanidium salts; assay type: cell-based; details: red blood cells 2% v/v in PBS, 1 h at 37 °C
Experimental: The toxicity of PEB-Biguanidiums salts was estimated through their hemolytic activity by incubating red blood cells (RBC) with the compounds for 1 h (See Supplementary Table S13 and Supplementary Fig. S29).
Experimental. Red blood cells in Alsever’s solution were centrifuged for 10 min at 300g, washed 3 times with PBS buffer, and resuspended in PBS at 2% v/v. To each well of a 96-well plate, 195 µL of red blood cell solution and 5 µL of biguanidium salt in DMSO were added, and the plate was incubated with light agitation for 1 h at 37 °C. The plate was then centrifuged for 10 min at 300g, and 50 µL of the supernatant solution of each well was transferred to another plate. Absorbance was measured at λ = 405 nm. Each measurement was performed in triplicate in three different experiments.

KP4 cells = experiment: Growth assay (crystal violet), KP4 cells; assay type: cell-based, human; details: KP4 cells, 3 days treatment, crystal violet retention assay, read-out: IC50 KP4
Experimental: as §1, §2

red blood cells [3] = tested on: red blood cells; parameters: method as in PMID 23143143, doi:10.1039/C3md00293d; details: cited from earlier work

SMILES | IC50 [1] | HC 10% (µM) (red blood cells [2]) | HC 10% (µg/ml) (red blood cells [2]) | IC50 (KP4 cells) | HC50 (concentration that kills 50% of red blood cells) (red blood cells [3]) | IC50 ([1]; Homo sapiens, HPNE, 72 h) | IC50 (KP4 cells; Homo sapiens, KP-4, 72 h)
N=C(N)NC(=N)NCc1ccc(CCc2ccccc2)cc1 [2a, 4-(phenylethyl)benzylbiguanide] | 23.2 µM | > 173 µM | > 100 µg/mL | 20.7 µM |  |  | 
N=C(N)NC(=N)Nc1ccc(C#Cc2ccccc2)cc1 [3c, 4-(phenylethynylphenyl)biguanidium] | 52.6 µM | > 319 µM | > 100 µg/mL | 38.9 µM |  |  | 
N=C(N)NC(=N)Nc1ccc(CCc2ccccc2)cc1 [4c, 4-(phenylethylphenyl)biguanidium] |  | > 315 µM | > 100 µg/mL | 16.9 µM |  |  | 
N=C(N)NC(=N)Nc1ccc(CCc2ccccc2)cc1 [4b, 4-(phenylethylphenyl)biguanidium] | 47.4 µM | > 232 µM | > 100 µg/mL | 13.9 µM |  |  | 
N=C(N)NC(=N)Nc1ccc(C#Cc2ccccc2)cc1 [3b, 4-(phenylethynylphenyl)biguanidium] | 60.4 µM | > 234 µM | > 100 µg/mL | 58.3 µM |  |  | 
C[n+]1cn(Cc2ccc(C#Cc3ccccc3)cc2)c2ccccc21 [A.3] |  |  |  |  | 150 mM |  | 
N=C(N)NC(=N)Nc1ccc(CCc2ccccc2)cc1 [4a, 4-(phenylethylphenyl)biguanidium] |  | > 178 µM | > 100 µg/mL |  |  | 32.6 µM | 12.2 µM
N=C(N)NC(=N)NCc1ccc(CCc2ccccc2)cc1 [2c, 4-(phenylethyl)benzylbiguanide] |  | 151 µM | 50 µg/mL |  |  | 37.4 µM | 15.8 µM
C(#Cc1ccc(Cn2c[n+](Cc3ccccc3)c3ccccc32)cc1)c1ccccc1 [A.2] |  |  |  |  | 1 mM |  | 
N=C(N)NC(=N)NCc1ccc(C#Cc2ccccc2)cc1 [1c, 4-(phenylethynyl)benzylbiguanide] | 28.1 µM | > 305 µM | > 100 µg/mL | 9.21 µM |  |  | 
N=C(N)NC(=N)NCc1ccc(CCc2ccccc2)cc1 [2b, 4-(phenylethyl)benzylbiguanide] | 31.3 µM | > 225 µM | > 100 µg/mL | 17.4 µM |  |  | 
N=C(N)NC(=N)Nc1ccc(C#Cc2ccccc2)cc1 [3a, 4-(phenylethynylphenyl)biguanidium] | 20.2 µM | > 179 µM | > 100 µg/mL | 17 µM |  |  | 
C(#Cc1ccc(Cn2c[n+](Cc3ccc(C#Cc4ccccc4)cc3)c3ccccc32)cc1)c1ccccc1 [A.1] |  |  |  |  | 0.15 mM |  | 
